Data on two compounds can be found in paper doi:10.1101/2025.01.28.635346v1 (bioRxiv, 2025).

Bridge positions count the residues as written; N and C are the ends. Side chains are listed from the residue outwards. Peptide text beside a SMILES is read from it. * marks the point of attachment. Butanoyl(4-(4-I-phenyl)) = O=C(CCCc1ccc(I)cc1)*; PEG2 = NCCOCCOCCC(=O)O A value given as a limit tells only on which side of the number the result lay.

One series deals with GABAA (Homo sapiens, UniProt P14867+P18507+P47870). The experiment in a line: Safetyscan47 Ion Channel, Blocker. In kind it is cell-based. Particulars: for Emax: read-out: Max Response.
GABAA, sequence (P14867 28-456): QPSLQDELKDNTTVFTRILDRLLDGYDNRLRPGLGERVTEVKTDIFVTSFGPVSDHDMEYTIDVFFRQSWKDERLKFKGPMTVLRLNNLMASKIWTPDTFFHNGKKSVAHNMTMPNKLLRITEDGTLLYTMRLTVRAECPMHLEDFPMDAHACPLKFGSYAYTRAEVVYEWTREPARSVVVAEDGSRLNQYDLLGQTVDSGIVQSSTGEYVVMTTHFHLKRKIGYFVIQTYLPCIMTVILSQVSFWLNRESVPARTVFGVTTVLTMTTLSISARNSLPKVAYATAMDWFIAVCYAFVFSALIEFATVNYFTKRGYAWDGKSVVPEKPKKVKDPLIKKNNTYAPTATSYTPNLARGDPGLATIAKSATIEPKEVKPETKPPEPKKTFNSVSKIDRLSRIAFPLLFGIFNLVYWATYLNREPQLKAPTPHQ
GABAA, sequence (P47870 26-512): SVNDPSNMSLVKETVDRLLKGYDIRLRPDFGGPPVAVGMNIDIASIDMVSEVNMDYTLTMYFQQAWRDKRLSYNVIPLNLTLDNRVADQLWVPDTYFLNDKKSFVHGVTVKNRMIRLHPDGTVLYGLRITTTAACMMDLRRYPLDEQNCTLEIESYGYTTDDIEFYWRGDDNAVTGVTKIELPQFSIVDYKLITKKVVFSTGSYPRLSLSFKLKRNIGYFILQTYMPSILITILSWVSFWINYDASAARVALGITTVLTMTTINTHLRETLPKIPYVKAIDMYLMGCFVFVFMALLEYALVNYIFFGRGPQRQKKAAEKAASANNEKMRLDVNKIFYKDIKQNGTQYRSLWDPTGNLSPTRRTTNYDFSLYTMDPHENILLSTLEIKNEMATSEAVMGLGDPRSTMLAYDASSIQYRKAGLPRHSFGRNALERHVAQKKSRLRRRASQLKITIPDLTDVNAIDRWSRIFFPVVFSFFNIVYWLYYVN
GABAA, sequence (P18507 40-475): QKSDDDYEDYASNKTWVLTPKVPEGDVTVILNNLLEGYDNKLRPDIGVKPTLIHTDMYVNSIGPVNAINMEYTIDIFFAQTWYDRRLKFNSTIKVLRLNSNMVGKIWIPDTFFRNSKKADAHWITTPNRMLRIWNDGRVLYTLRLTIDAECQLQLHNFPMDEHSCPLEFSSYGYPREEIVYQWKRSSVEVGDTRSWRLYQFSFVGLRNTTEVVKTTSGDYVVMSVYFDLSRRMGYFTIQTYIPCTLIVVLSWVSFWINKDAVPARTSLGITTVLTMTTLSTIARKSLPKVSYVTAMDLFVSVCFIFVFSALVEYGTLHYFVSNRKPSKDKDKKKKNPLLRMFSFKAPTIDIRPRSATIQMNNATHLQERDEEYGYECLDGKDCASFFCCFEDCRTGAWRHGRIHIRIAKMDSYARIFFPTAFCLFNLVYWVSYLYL
Another series addresses T1, GR (Homo sapiens, UniProt P04150).
T1 sequence (P04150 1-777): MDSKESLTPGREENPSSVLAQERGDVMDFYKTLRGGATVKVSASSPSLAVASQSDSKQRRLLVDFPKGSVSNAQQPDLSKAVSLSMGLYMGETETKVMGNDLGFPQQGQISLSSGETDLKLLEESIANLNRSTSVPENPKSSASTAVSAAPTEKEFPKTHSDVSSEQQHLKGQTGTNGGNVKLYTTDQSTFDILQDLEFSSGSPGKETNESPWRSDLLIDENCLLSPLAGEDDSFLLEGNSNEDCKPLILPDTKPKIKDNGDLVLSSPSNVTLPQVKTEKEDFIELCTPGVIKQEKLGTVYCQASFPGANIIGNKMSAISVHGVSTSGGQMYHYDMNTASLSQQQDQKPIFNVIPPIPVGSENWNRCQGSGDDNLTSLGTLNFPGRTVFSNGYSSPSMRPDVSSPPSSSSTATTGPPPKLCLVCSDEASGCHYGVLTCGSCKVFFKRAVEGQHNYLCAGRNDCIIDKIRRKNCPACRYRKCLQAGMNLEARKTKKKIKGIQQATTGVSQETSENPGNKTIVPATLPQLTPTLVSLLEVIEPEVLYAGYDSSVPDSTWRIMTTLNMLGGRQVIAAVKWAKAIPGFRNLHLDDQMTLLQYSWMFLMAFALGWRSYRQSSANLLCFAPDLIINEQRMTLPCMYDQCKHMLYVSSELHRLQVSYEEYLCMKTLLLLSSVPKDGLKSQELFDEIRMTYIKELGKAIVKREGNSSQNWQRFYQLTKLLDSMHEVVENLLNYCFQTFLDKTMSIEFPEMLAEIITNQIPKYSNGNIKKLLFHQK
The experiment in a line: Safetyscan47 NHR Protein Interaction, Agonist. The series is classed as cell-based. Particulars: for Emax: read-out: Max Response.

A short description of series [1]: Plasma protein binding, rapid equilibrium dialysis, human plasma. In kind it is in vitro ADME. Particulars: for fraction unbound at 4 h, 2 μM: human, plasma, pH 7.4.
The target in another series is T2, ADRA2A (Homo sapiens, UniProt P08913).
T2 sequence (P08913 1-465): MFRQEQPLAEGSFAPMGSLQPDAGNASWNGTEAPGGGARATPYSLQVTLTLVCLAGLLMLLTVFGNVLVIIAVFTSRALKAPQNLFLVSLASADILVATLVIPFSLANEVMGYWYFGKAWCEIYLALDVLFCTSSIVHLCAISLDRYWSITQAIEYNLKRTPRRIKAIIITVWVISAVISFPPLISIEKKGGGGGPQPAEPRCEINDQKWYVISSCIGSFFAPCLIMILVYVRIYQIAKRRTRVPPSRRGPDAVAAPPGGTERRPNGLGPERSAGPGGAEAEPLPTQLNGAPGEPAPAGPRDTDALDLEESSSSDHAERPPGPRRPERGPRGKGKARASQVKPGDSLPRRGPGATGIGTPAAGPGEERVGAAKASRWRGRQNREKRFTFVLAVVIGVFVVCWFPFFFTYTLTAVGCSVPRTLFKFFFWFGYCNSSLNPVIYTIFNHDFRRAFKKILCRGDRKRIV
Briefly: Safetyscan47 GPCR cAMP, Agonist. Particulars: for Emax: read-out: Max Response. In kind it is cell-based.

The target in the next series is ADRB2 (Homo sapiens, UniProt P07550). The experiment in a line: Safetyscan47 GPCR cAMP, Agonist. In kind it is cell-based. Particulars: for Emax: read-out: Max Response.
ADRB2, sequence (P07550 whole entry): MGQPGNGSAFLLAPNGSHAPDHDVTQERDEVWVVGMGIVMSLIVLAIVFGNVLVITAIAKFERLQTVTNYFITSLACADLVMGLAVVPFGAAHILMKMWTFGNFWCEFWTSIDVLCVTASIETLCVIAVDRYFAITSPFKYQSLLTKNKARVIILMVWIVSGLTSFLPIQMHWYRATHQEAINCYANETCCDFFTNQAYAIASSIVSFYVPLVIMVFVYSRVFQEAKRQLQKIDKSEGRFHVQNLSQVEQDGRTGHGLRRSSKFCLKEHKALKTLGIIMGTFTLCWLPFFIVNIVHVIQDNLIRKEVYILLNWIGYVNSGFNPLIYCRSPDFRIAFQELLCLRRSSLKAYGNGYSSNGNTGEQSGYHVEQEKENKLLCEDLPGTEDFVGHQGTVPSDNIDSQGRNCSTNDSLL
The target in a further series is ROCK1 (Homo sapiens, UniProt Q13464). Briefly: Safetyscan47 Kinases Binding, Inhibitor. Particulars: for Emax: read-out: Max Response.
ROCK1, sequence (Q13464 whole entry): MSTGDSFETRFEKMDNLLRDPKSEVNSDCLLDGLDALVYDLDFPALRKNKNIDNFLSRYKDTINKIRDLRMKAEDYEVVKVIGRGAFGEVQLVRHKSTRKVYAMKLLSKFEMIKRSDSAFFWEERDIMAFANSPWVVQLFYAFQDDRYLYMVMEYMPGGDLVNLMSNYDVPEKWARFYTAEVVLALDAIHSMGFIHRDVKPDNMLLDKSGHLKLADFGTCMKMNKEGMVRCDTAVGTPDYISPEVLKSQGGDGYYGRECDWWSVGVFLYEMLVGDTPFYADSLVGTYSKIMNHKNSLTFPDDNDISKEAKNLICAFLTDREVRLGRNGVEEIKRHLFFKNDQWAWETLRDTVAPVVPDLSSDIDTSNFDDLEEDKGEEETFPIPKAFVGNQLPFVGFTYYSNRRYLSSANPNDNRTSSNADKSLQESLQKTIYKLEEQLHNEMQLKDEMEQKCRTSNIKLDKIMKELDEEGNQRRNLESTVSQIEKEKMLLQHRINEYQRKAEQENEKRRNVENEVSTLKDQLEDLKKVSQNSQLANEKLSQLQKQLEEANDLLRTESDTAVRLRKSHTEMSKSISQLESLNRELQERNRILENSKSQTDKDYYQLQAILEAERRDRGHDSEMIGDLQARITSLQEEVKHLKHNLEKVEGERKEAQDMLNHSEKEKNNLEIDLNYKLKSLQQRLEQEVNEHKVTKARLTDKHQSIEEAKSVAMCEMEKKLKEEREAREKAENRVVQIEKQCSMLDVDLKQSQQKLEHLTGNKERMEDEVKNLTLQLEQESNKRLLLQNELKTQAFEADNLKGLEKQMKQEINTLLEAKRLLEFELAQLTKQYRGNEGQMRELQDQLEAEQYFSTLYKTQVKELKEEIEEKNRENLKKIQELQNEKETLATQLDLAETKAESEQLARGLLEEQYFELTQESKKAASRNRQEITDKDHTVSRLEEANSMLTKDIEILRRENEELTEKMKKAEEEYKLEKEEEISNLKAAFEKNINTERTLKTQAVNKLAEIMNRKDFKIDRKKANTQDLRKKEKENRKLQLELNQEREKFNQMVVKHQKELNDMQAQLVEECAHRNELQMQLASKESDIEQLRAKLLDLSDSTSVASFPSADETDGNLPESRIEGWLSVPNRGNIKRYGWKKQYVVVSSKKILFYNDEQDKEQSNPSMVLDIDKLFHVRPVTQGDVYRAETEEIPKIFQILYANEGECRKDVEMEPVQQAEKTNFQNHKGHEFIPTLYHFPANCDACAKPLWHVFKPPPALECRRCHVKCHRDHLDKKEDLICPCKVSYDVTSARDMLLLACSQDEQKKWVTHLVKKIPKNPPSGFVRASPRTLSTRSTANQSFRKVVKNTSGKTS
A further series deals with T3, AR (Homo sapiens, UniProt P10275).
T3 sequence (P10275 1-920): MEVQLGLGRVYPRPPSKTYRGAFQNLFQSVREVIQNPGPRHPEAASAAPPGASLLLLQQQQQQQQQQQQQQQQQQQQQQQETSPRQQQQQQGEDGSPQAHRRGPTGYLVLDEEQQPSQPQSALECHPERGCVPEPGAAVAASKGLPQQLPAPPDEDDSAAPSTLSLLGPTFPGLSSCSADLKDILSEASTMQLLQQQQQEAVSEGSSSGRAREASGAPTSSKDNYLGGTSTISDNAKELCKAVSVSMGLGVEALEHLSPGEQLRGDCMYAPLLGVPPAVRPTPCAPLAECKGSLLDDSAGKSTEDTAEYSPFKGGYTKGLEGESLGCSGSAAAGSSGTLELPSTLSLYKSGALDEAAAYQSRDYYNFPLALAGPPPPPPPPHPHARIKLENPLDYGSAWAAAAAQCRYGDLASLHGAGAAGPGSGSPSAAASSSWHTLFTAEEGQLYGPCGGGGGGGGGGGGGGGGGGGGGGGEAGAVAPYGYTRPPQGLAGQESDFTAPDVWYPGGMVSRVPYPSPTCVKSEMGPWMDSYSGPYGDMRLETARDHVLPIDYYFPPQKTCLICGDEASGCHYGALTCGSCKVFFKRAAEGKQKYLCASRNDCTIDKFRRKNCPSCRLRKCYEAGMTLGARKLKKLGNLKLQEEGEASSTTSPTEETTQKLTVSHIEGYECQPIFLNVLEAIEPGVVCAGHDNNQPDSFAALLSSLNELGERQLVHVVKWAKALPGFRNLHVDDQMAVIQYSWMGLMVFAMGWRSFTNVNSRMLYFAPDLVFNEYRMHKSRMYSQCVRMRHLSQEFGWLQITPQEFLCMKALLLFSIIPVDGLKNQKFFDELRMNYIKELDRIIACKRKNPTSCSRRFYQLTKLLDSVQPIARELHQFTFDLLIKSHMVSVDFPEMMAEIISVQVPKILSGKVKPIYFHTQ
Briefly: Safetyscan47 NHR Nuclear Translocation, Antagonist. In kind it is cell-based. Particulars: for Emax: read-out: Max Response.

With `CC[C@H](C)[C@H](NC(=O)[C@H](CC(C)C)NC(=O)[C@H](CC(=O)O)NC(=O)CNC(=O)[C@H](CCCNC(=N)N)NC(=O)[C@@H](NC(=O)[C@H](Cc1ccccc1)NC(=O)[C@H](Cc1ccc(O)cc1)NC(=O)[C@@H]1CCC(=O)NCC(=O)NCC(=O)N[C@@H](CCCNC(=N)N)C(=O)NCC(=O)N[C@@H](Cc2c[nH]cn2)C(=O)N[C@@H](C(C)C)C(=O)N2CCC[C@H]2C(=O)N1)C(C)C)C(=O)N[C@@H](CO)C(=O)N[C@@H](Cc1ccccc1)C(=O)N[C@@H](Cc1ccc(O)cc1)C(=O)N[C@@H](CCCCN)C(=O)O` [lassotide 36] (GGRGHVPEYFVRGDLISFYK-OH; lactam N-8), the IC50 against GABAA, at ROCK1 and on AR was > 45 µM each time. The Emax at GABAA was 0%; on GR, 0%; at ADRA2A it was 0.3%; at ADRB2, 0%; on ROCK1, 19%; at AR, 0%. Moreover, the EC50 on GR, at ADRA2A and on ADRB2 was > 45 µM in each case. In series [1], the fraction unbound at 4 h, 2 μM was 0.126.
On to `CC[C@H](C)[C@H](NC(=O)[C@H](CC(C)C)NC(=O)[C@H](CC(=O)O)NC(=O)CNC(=O)[C@H](CCCNC(=N)N)NC(=O)[C@@H](NC(=O)[C@H](Cc1ccccc1)NC(=O)[C@H](Cc1ccc(O)cc1)NC(=O)[C@@H]1CCC(=O)NCC(=O)NCC(=O)N[C@@H](CCCNC(=N)N)C(=O)NCC(=O)N[C@@H](Cc2c[nH]cn2)C(=O)N[C@@H](C(C)C)C(=O)N2CCC[C@H]2C(=O)N1)C(C)C)C(=O)N[C@@H](CO)C(=O)N[C@@H](Cc1ccccc1)C(=O)N[C@@H](Cc1ccc(O)cc1)C(=O)N[C@@H](CCCCNC(=O)CCOCCOCCNC(=O)CCCc1ccc(I)cc1)C(=O)O` [lassotide 47] (GGRGHVPEYFVRGDLISFYK([PEG2-Butanoyl(4-(4-I-phenyl))])-OH; lactam N-8), for which the IC50 against GABAA, on ROCK1 and against AR was > 45 µM in each case. The Emax was found to be 0% at GABAA; 0% on GR; 30.2% on ADRA2A; 0% at ADRB2; 2.56% at ROCK1; 0% on AR. Further, the half-maximal effective concentration (EC50) at GR, at ADRA2A and at ADRB2 was > 45 µM throughout. In addition, in series [1] (human plasma, RED, 2 μM, 4 h, 37°C), the “Plasma protein binding, %Recovery” value amounted to 101%. In series [1], this compound showed a free fraction (fraction unbound) at 4 h, 2 μM of 0.006.

The term IC50 denotes the concentration needed to halve the response being measured. Lower therefore signals greater potency in that assay. One may read the EC50 as the concentration needed to bring the measured effect to its halfway point. Low values mean an effect from little substance, high ones a need for much substance. One may read the fraction unbound as free concentration divided by total concentration. High values mean weak binding, low ones extensive binding.
